Reference: ChEMBL document CHEMBL5725856, “Substituted N-bicyclo-2-aryl-quinolin-4-carboxamides and use thereof” (2018)

Target: Prostaglandin F2-alpha receptor (Homo sapiens, UniProt P43088)
Experiment: In Vitro Test of Inhibition of Human FP Receptor Activity : For the characterization of test substances in respect of FP antagonism, PGF2α-induced calcium flux in FP-expressing CHEM1 cells (Millipore, HTS093C) was used.3000 cells in 25 μl of full medium [DMEM F12, 10% FCS, 1.35 mM sodium pyruvate, 20 mM HEPES, 4 mM GlutaMAX, 2% sodium bicarbonate, 1% Pen/Strep, 1% 100× non-essential amino acids] are sown per well of a 384 multititer plate (from Greiner, TC plate, black with clear base) and incubated at 37° C./5% CO2 for 24 hours. Prior to the measurement, the medium is replaced by 30 μl of Fluo-8 AM loading buffer [calcium-free Tyrode (130 mM NaCl, 5 mM KCl, 20 mM HEPES, 1 mM MgCl2, 4.8 mM NaHCO3, pH 7.4), 2 mM CaCl2, 1× SmartBlock (from CANDOR Bioscience GmbH), 4.5 mM Probenecid, 5 μM Fluo-8 AM, 0.016% Pluronic, 0.04% Brilliant black] and incubated at 37° C./5% CO2 for 30 minutes. The test substance is prepared in DMSO in various concentrations as a dose-response curve (starting concentration 10 mM, dilution factor 3.16) and prediluted 1:50 with calcium-free Tyrode/2 mM CaCl2. 10 μl of the prediluted substance solution are added to the Fluo-8-laden cells and incubated at 37° C./5% CO2 for 10 minutes. […]
Type: cell-based

Prostaglandin F2-alpha receptor, sequence (P43088 whole entry): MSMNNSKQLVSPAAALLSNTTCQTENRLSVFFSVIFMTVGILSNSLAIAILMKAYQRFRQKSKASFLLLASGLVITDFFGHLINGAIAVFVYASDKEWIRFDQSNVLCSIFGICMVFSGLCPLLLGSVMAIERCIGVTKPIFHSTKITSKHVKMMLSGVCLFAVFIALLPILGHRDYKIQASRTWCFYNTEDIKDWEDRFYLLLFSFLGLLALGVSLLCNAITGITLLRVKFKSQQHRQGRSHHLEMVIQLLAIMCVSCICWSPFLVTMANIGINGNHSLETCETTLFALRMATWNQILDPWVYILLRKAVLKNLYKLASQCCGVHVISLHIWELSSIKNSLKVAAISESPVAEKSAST

## Cc1c(-c2ccccc2)nc2ccc(C(C)(C)C)cc2c1C(=O)NC12CCC(C(=O)O)(CC1)CC2
  IC50: 0.456 µM
